Among the data in patent publication US12697325B2 (TENNOR THERAPEUTICS (SUZHOU) LIMITED, priority 2021, dated 2026) are MIC50, MIC90 and MIC range values, retold here.

The subject of this experiment is clinical strains of Acinetobacter baumannii. As to the kind of experiment: Minimum inhibitory concentration (CLSI M07), Example 1, clinical strains. In kind it is cell-based. As to conditions: combination MIC = sum of the concentrations of the two compounds. On the procedure: The minimum inhibitory concentration (MIC) was determined in accordance with the requirements of the Clinical and Laboratory Standards Institute (CLSI) M07 (for aerobic bacteria).
3.1 The compounds were diluted with water up to 100 times of the highest concentration tested.
The dilution steps are as follows: first dilute the compounds or antibiotics to 100 times of the highest final concentration tested, and then:
A 50 μL of sterile water and 50 μL of avibactam sodium mother liquid were added into the A row of the second 96-well plate, and 50 μL of water was added into each of the remaining wells. A 50 μL of liquid was pipetted from the A row and added into the B row; after being pipetted up and down to even, 50 μL of the solution was pipetted and added to the C row, and diluted in a 2-fold gradient in turn for a total of 6 times and then, 50 μL was removed from each well of the G row to obtain the compound solution diluted to a 2-fold gradient and then 4 μL was transferred to a 96-well test plate.
Aerobic bacteria: the strains were inoculated on MHA one day in advance and incubated overnight at 37° C. On the day of the assay, 5-6 single colonies were picked and suspended evenly in saline, and the bacterial concentration was adjusted to the turbidity of 0.5 McFarland standard (concentration is about 1×10^8 CFU/mL). The bacterial suspension was diluted 200 times with the corresponding liquid culture medium (Table 1), i.e., at a bacterial concentration of ~5×10^5 CFU/ml, then 192 μL was transferred to a 96-well round bottom plate to obtain the test plate. Then, the 96-well round bottom plate obtained above was placed into an incubator at 37° C. and 85% humidity to incubate for 20 h.

Take `CC1(C)[C@H](C(=O)[O][Na+])N2C(=O)C[C@H]2S1(=O)=O` [Sulbactam sodium, sulbactam sodium]: the MIC range was in the range of 8 to 32 µg/mL. Moreover, the MIC50 (as a rule, the lowest concentration that inhibits either 50% of growth or 50% of the strains tested, depending on the study) (Acinetobacter baumannii, read-out: MIC50) was 32 µg/mL. Moreover, the MIC90 (in general, an inhibitory concentration at the 90% level, which refers to growth in some studies and to a panel of isolates in others) (Acinetobacter baumannii, read-out: MIC90) turned out to be 32 µg/mL.
